Assays:
[1] = biological target: T1, Lanosterol synthase (Homo sapiens) (UniProt P48449); experiment: Inhibition of human OSC expressed in Saccharomyces cerevisiae at 20 uM by gas chromatography relative to LDAO2
T1 sequence (whole entry): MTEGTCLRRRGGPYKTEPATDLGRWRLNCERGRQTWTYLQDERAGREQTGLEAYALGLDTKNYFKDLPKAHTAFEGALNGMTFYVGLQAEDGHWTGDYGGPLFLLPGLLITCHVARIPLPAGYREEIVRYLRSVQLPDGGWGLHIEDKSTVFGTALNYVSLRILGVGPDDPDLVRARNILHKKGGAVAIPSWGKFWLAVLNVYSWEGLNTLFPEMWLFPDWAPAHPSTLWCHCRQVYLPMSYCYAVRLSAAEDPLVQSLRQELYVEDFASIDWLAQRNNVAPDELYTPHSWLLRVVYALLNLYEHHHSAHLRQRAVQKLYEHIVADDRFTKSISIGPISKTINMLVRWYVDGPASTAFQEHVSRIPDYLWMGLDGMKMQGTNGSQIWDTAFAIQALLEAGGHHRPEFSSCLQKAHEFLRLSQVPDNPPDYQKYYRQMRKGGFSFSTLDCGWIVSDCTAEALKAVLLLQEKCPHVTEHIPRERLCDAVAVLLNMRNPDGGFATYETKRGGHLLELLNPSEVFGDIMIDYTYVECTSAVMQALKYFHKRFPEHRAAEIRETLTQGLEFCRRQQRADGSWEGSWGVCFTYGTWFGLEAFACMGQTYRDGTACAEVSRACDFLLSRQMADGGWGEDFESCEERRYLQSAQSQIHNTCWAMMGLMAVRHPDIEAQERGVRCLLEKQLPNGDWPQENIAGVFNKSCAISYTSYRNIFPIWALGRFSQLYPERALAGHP

[2] = biological target: T2, Lanosterol synthase (Homo sapiens, UniProt P48449); experiment: Inhibition of human OSC expressed in Saccharomyces cerevisiae by gas chromatography
T2 sequence (P48449 whole entry): T1 sequence (whole entry)

Row | SMILES | inhibition [1] [%] | IC50 [2] [µM]
1 | Cc1cc(CNCc2ccc(CN(C)C)cc2)c(C)n1CC(C)C | 27 | –
2 | CN(C)Cc1ccc(CNCc2cnn(-c3ccccc3)n2)cc1 | 77 | –
3 | CN(C)Cc1ccc(CNC(=O)Nc2ccc(Cl)cc2)cc1 | 97 | 3.12
4 | S=C(NCc1ccccc1)Nc1ccc(Cc2ccncc2)cc1 | 96 | 4.75
5 | COc1ccc(-n2c(C)cc(CNCc3ccc(CN(C)C)cc3)c2C)cc1 | 75 | –
6 | CN(C)Cc1ccc(CNC(=O)c2ccc(C(F)(F)F)cc2)cc1 | 101 | 1.38
7 | CN(C)Cc1ccc(CNC(=O)COc2ccc3ccccc3c2)cc1 | 83 | 10.8
8 | CCCCCCCCCCCC[N+](C)(C)[O-] | 100 | 6.31
9 | O=C(CCc1ccc(CN2CCCC2)cc1)Cn1cnc2sc(-c3ccccc3)cc2c1=O | 87 | 5.02
10 | O=C(Cc1ccc(Cl)cc1)c1ccc(C(=O)NCCCn2ccnc2)[nH]1 | 59 | –
